Measurements reported in patent US20180296456A1, “Decapeptide-12 Modulation of Sirtuin Gene Expression in Epidermal Keratinocyte Progenitors” (Escape Therapeutics, Inc., priority 2017, published 2018).

Legend:
Type in all cases: cell-based
SIRT6 = SIRT6 transcription, semi-quantitative RT-PCR in human epidermal progenitors; conditions: 72 h
Experimental: (§1) Human neonatal epidermal progenitors (Thermo Fisher Scientific, NY) were seeded in 6-well plates at a density of 2×10^5 cells/well. Each well received 2 ml of Epilife media containing 60 μM calcium chloride (Thermo Fisher Scientific, NY). Plates were incubated in a humidified chamber at 37 degrees Celsius and 5 percent CO2. Twenty-four hours later, cells were treated with various concentrations of oxyresveratrol or decapeptide-12 dissolved in PBS containing 5 percent DMSO. Control wells received vehicle only (5 percent DMSO and PBS). Final concentration of DMSO in each well was 0.05 percent.
(§2) After a 72 hour incubation period, cells were trypsinized and total RNA extracted, using RNeasy kit (Qiagen, Valencia, Calif.) according to the manufacturer's protocol.
(§3) RNA concentration was determined using nanodrop (Thermo fisher scientific, NY). Two μg of total RNA were used to synthesize cDNA using oligo dT primers and TaqMan reverse transcription reagents (Thermo fisher scientific, NY). The reaction was carried out in DNA Engine Peltier Thermal Cycler (Bio-Rad, Hercules, Calif.). The annealing temperature was 25 degrees Celsius for 10 minutes, followed by first strand synthesis at 48 degrees Celsius for 1 hour, and heat inactivation at 95 degrees Celsius for 5 minutes.
(§4) The SIRT1-7 primers (table 1) were designed using Primer3. The semi-quantitative PCR reactions were performed on a DNA Engine Peltier Thermo Cycler (Bio-Rad, Hercules, Calif.). PCR was carried under the following conditions: denaturation at 94 degrees Celsius for 2 minutes and primer extension at 54 degrees Celsius for 30 seconds in 34 cycles for SIRT 1-7 and the housekeeping gene 18S.
(§5) Samples were run and resolved on a 1.5 percent agarose gel containing 0.5 μg/ml of ethidium bromide and imaged using the FluorChem HD2 Imaging System (Protein simple, San Jose, Calif.). Densitometry analysis was carried out using the AlphaEase FC software (Protein simple, San Jose, Calif.). Intensity ratios were calculated as the intensity value for each gene divided by the intensity value of the internal control gene 18S.
(§6) The effect of the decapeptides P4, P4A, P4B, and P4C upon the transcription levels of sirtuins 1-7 was evaluated. Table 4 summarizes transcription levels for all four decapeptides with the corresponding genes, at tested concentrations of: 10, 30, 50, 100, and 300 (all in μM).

[1] = tested on: human epidermal progenitors; experiment: Trypan blue dye exclusion cytotoxicity assay, 72 h, epidermal progenitors; conditions: human, 72 h
Experimental: Cellular toxicity was measured using a trypan blue dye exclusion assay. Cells were cultured in 6-well plates at a density of 4×10^5 cells/well. Each well received a different concentration of decapeptide-12 or oxyresveratrol (0, 3, 10, 30, 100, 300, and 1000 μM). Plates were incubated at 37 degrees Celsius in a humidified 5 percent CO2 chamber. After 72 h, an aliquot was taken and cells counted using a hemacytometer. Cytotoxicity was measured according to the following formula: [1−(# of cells in control−# of live cells in test sample)/# of cells in control]×100 percent.

[2] = tested on: human epidermal progenitors; experiment: in vitro; conditions: 72 h
Experimental: Proliferation rates were determined using a TACS® MTT Cell Proliferation Kit (R&D systems, Minneapolis, Minn.). Cells were seeded at 2.5×10^4/well in 96-well plates in a humidified atmosphere with 5 percent CO2 at 37 degrees Celsius. Twenty-four hours later, decapeptide-12 or oxyresveratrol were added to the corresponding wells at varying concentrations (0, 3, 10, 30, 100, 300, and 1000 μM), and cultures were then incubated for 72 hours. The remainder of the procedure was performed following the manufacturer's protocol.
Proliferation rates for three human cell lines (epidermal progenitors, melanoblasts, and fibroblasts) were determined using a TACS® MTT Cell Proliferation Kit. Cells were seeded at 2.5×10^4/well in 96-well plates in a humidified atmosphere with 5 percent CO2 at 37 degrees Celsius. Twenty-four hours later, the decapeptides were added to the corresponding wells at varying concentrations and incubated for 72 hours. The remainder of the procedure was performed following the manufacturer's protocol.

SIRT4 = SIRT4 transcription, semi-quantitative RT-PCR in human epidermal progenitors; conditions: 72 h
Experimental: as §1, §2, §3, §4, §5, §6

SIRT5 = SIRT5 transcription, semi-quantitative RT-PCR in human epidermal progenitors; conditions: 72 h
Experimental: as §1, §2, §3, §4, §5, §6

SIRT2 = SIRT2 transcription, semi-quantitative RT-PCR in human epidermal progenitors; conditions: 72 h
Experimental: as §1, §2, §3, §4, §5, §6

SIRT3 = SIRT3 transcription, semi-quantitative RT-PCR in human epidermal progenitors; conditions: 72 h
Experimental: as §1, §2, §3, §4, §5, §6

SIRT7 = SIRT7 transcription, semi-quantitative RT-PCR in human epidermal progenitors; conditions: 72 h
Experimental: as §1, §2, §3, §4, §5, §6

SIRT1 = SIRT1 transcription, semi-quantitative RT-PCR in human epidermal progenitors; conditions: 72 h
Experimental: as §1, §2, §3, §4, §5, §6

Oc1cc(O)cc(/C=C/c2ccc(O)cc2O)c1 [oxyresveratrol, Oxyresveratrol, reference compound]
SIRT6 transcription increase relative to control (SIRT6; 3 μM): 6.1 ± 1% | SIRT6 transcription increase relative to control (SIRT6; 10 μM): 34 ± 5.5% | SIRT6 transcription increase relative to control (SIRT6; 30 μM): 73±8% | SIRT6 transcription increase relative to control (SIRT6; 30 μM, listed as Oxy): 73 ± 8.1% | SIRT6 transcription increase relative to control (SIRT6; 50 μM): 81.3 ± 8.1% | SIRT6 transcription increase relative to control (SIRT6; 100 μM): 82.4 ± 8.4% | SIRT6 transcription increase relative to control (SIRT6; 300 μM): 87.4 ± 9.3% | SIRT6 transcription increase relative to control (SIRT6; 500 μM): 81.2 ± 12.4% | SIRT6 transcription increase relative to control (SIRT6; 1000 μM): 75 ± 15.1% | cell death ([1]; 100 μM): 6±1% | cell death ([1]; 1 mM): 16±2% | reduced cell proliferation ([2]; 300 μM): 5±1% | reduced cell proliferation ([2]; 1 mM): 12±2% | SIRT4 transcription increase relative to control (SIRT4; 3 μM): 8.1 ± 1% | SIRT4 transcription increase relative to control (SIRT4; 10 μM): 12.4 ± 2.1% | SIRT4 transcription increase relative to control (SIRT4; 30 μM): 49 ± 6.7% | SIRT4 transcription increase relative to control (SIRT4; 50 μM): 52.1 ± 6.6% | SIRT4 transcription increase relative to control (SIRT4; 100 μM): 64.1 ± 7.4% | SIRT4 transcription increase relative to control (SIRT4; 300 μM): 67 ± 8.7% | SIRT4 transcription increase relative to control (SIRT4; 500 μM): 61.2 ± 8.8% | SIRT4 transcription increase relative to control (SIRT4; 1000 μM): 71.3 ± 9.2% | SIRT5 transcription increase relative to control (SIRT5; 3 μM): 7.1 ± 1% | SIRT5 transcription increase relative to control (SIRT5; 10 μM): 12.3 ± 3%^ | SIRT5 transcription increase relative to control (SIRT5; 30 μM): 45.1 ± 4.3% | SIRT5 transcription increase relative to control (SIRT5; 50 μM): 46 ± 4% | SIRT5 transcription increase relative to control (SIRT5; 100 μM): 36.1 ± 6.7% | SIRT5 transcription increase relative to control (SIRT5; 300 μM): 33.4 ± 7.1% | SIRT5 transcription increase relative to control (SIRT5; 500 μM): 35.1 ± 8.1% | SIRT5 transcription increase relative to control (SIRT5; 1000 μM): 37 ± 6.8% | SIRT2 transcription increase relative to control (SIRT2; 3 μM): 7.9 ± 2% | SIRT2 transcription increase relative to control (SIRT2; 10 μM): 14.9 ± 1.9% | SIRT2 transcription increase relative to control (SIRT2; 30 μM): 43.1 ± 2.4% | SIRT2 transcription increase relative to control (SIRT2; 50 μM): 56.3 ± 7.7% | SIRT2 transcription increase relative to control (SIRT2; 100 μM): 41.2 ± 8.1% | SIRT2 transcription increase relative to control (SIRT2; 300 μM): 39 ± 9.3% | SIRT2 transcription increase relative to control (SIRT2; 500 μM): 33.1 ± 12.4% | SIRT2 transcription increase relative to control (SIRT2; 1000 μM): 31.2 ± 12.3% | SIRT3 transcription increase relative to control (SIRT3; 3 μM): 10 ± 3% | SIRT3 transcription increase relative to control (SIRT3; 10 μM): 52.7 ± 5.1% | SIRT3 transcription increase relative to control (SIRT3; 30 μM): 133±5% | SIRT3 transcription increase relative to control (SIRT3; 30 μM, listed as Oxy): 133 ± 4.8% | SIRT3 transcription increase relative to control (SIRT3; 50 μM): 156 ± 9.2% | SIRT3 transcription increase relative to control (SIRT3; 100 μM): 148 ± 7.3% | SIRT3 transcription increase relative to control (SIRT3; 300 μM): 152.2 ± 9% | SIRT3 transcription increase relative to control (SIRT3; 500 μM): 151 ± 8.1% | SIRT3 transcription increase relative to control (SIRT3; 1000 μM): 151 ± 7.4% | SIRT7 transcription increase relative to control (SIRT7; 3 μM): 6.3 ± 1% | SIRT7 transcription increase relative to control (SIRT7; 10 μM): 65 ± 2.9% | SIRT7 transcription increase relative to control (SIRT7; 30 μM): 95±7% | SIRT7 transcription increase relative to control (SIRT7; 30 μM, listed as Oxy): 95 ± 6.7% | SIRT7 transcription increase relative to control (SIRT7; 50 μM): 114 ± 8.1% | SIRT7 transcription increase relative to control (SIRT7; 100 μM): 132 ± 7.6% | SIRT7 transcription increase relative to control (SIRT7; 300 μM): 168 ± 4.8% | SIRT7 transcription increase relative to control (SIRT7; 500 μM): 177 ± 6.6% | SIRT7 transcription increase relative to control (SIRT7; 1000 μM): 165 ± 5.1% | SIRT1 transcription increase relative to control (SIRT1; 3 μM): 8.7 ± 1% | SIRT1 transcription increase relative to control (SIRT1; 10 μM): 45 ± 7.7% | SIRT1 transcription increase relative to control (SIRT1; 30 μM): 125±9% | SIRT1 transcription increase relative to control (SIRT1; 30 μM, listed as Oxy): 124.5 ± 8.6% | SIRT1 transcription increase relative to control (SIRT1; 50 μM): 166 ± 14.5% | SIRT1 transcription increase relative to control (SIRT1; 100 μM): 187 ± 16.6% | SIRT1 transcription increase relative to control (SIRT1; 300 μM): 187 ± 15.4% | SIRT1 transcription increase relative to control (SIRT1; 500 μM): 176 ± 10%^ | SIRT1 transcription increase relative to control (SIRT1; 1000 μM): 175 ± 9%
